Data as given in patent US10508120B2, “TYK2 inhibitors and uses thereof” (Nimbus Lakshmi, Inc., priority 2017, dated 2019).
Read-outs that look alike come from different tables or passages of the source.

Legend:
JAK2 kinase domain (JH1) = JAK2 kinase domain (JH1) (Homo sapiens (Human), UniProt O60674); test: JAK2 Radioactive Kinase Assay; assay type: biochemical; conditions: for inhibition at 10 µM: read-out: JAK2 JH1% Inhibition @ 10 μM
Method in brief: (§1)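 Single-point screen: 10 μM test compound, radioactive kinase read-out, percent inhibition reported for each kinase domain.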

Tyk2 kinase domain (DH1) = Tyk2 kinase domain (DH1) (Homo sapiens (Human), UniProt P29597); test: Tyk2 Radioactive Kinase Assay; assay type: biochemical; conditions: for inhibition at 10 µM: read-out: Tyk2 JH1% Inhibition @ 10 μM
Method in brief: as §1

[1] = biological target: human TYK2 (JH2domain-pseudokinase) (Homo sapiens (Human), UniProt P29597); test: TYK2 JH2 Domain Binding Assay (KINOMEscan)
Method in brief: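 Competition binding of an NFkB-DBD fusion of human TYK2 JH2 (G556–D888), expressed in HEK293 and used as crude extract at <0.1 nM, against immobilized ligand beads; 1 h at room temperature in PBS/Tween/DTT/BSA buffer, 0.9% DMSO.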

Chain of human TYK2 (JH2domain-pseudokinase) (P29597 556-888): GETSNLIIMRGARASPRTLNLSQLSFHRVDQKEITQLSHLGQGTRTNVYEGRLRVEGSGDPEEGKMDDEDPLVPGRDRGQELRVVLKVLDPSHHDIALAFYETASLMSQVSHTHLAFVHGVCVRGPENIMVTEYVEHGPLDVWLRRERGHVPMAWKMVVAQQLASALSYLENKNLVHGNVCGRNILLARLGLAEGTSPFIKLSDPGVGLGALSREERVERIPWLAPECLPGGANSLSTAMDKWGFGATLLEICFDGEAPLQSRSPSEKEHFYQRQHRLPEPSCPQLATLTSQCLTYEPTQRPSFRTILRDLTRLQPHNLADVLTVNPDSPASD
Chain of JAK2 kinase domain (JH1) (O60674 849-1124): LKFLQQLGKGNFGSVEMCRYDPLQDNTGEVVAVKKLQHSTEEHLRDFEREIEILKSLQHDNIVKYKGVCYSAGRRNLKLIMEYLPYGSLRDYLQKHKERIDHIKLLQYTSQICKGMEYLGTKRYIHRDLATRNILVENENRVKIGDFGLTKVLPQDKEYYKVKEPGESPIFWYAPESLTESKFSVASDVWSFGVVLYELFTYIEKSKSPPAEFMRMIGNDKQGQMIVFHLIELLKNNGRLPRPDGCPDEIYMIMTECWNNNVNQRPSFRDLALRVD
Chain of Tyk2 kinase domain (DH1) (P29597 897-1176): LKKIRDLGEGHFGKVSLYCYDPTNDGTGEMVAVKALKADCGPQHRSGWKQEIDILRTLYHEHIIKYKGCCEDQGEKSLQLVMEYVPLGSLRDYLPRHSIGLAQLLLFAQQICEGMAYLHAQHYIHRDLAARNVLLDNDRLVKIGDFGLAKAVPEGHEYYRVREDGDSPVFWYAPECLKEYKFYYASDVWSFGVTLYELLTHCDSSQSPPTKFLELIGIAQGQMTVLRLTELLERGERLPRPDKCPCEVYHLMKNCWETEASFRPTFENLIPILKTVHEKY

Structure (SMILES) | inhibition at 10 µM (JAK2 kinase domain (JH1); compound at 10 μM, ATP 10 μM) [%] | inhibition at 10 µM (Tyk2 kinase domain (DH1); compound at 10 μM, ATP 10 μM) [%] | Kd [1] [nM] | other results
CNc1cc(Nc2cccn(-c3cc(C)on3)c2=O)nc2c(C(=O)NC3COC3)cnn12 [I-104] | < 50 | < 50 | 1 to 10 | 
CNc1cc(Nc2cccn(-c3cccc(F)c3)c2=O)nc2c(C(=O)NCC(C)CO)cnn12 (stereo not drawn) [I-947] |  |  | < 0.2 | inhibition at 10 µM (JAK2 kinase domain (JH1); 10 μM compound, 10 μM ATP): < 50%; inhibition at 10 µM (Tyk2 kinase domain (DH1); 10 μM compound, 10 μM ATP): < 50%
CNc1cc(Nc2cccn(-c3oc(C)nc3C)c2=O)nc2c(C(=O)NC3CC3)cnn12 [I-937] |  |  | 1 to 10 | inhibition at 10 µM (JAK2 kinase domain (JH1); 10 μM compound, 10 μM ATP): < 50%; inhibition at 10 µM (Tyk2 kinase domain (DH1); 10 μM compound, 10 μM ATP): < 50%
CNc1cc(Nc2cccn(-c3ccc(CCN4CCOCC4)cc3)c2=O)nc2c(C(=O)N[C@H]3C[C@H]3F)cnn12 [I-308] | < 50 | < 50 | < 0.2 | 
CNc1cc(-c2cn(CCN3CCOCC3)c3ncccc23)nc2c(C(N)=O)cnn12 [I-796, 7-(methylamino)-5-(1-(2-morpholinoethyl)-1H-pyrrolo[2,3-b]pyridin-3-yl)pyrazolo[1,5-a]pyrimidine-3-carboxamide] | < 50 | < 50 | < 0.2 | 
CNc1cc(Nc2cccc(N3CC[C@@H](OC)C3)n2)nc2c(C(=O)NC3CC3)cnn12 [I-481] | < 50 | < 50 | 0.2 to 1 | 
CNc1cc(Nc2cccn(-c3ccc(F)cc3)c2=O)nc2c(C(=O)NC3COC3)cnn12 [I-109] | < 50 | < 50 | > 10 | 
CNc1cc(Nc2cccnc2OC2CC2)nc2c(C(=O)NC(C)(C)C#N)cnn12 [I-492, N-(2-cyanopropan-2-yl)-5-((2-cyclopropoxypyridin-3-yl)amino)-7-(methylamino)pyrazolo[1,5-a]pyrimidine-3-carboxamide] | < 50 | < 50 | < 0.2 | 
CNc1cc(Nc2cccn([C@H]3CC[C@@H](N4CCOCC4)CC3)c2=O)nc2c(C(N)=O)cnn12 [I-68] | < 50 | < 50 | 0.2 to 1 | 
NC(=O)c1cnn2c(N)cc(Nc3cccn(-c4ccc(F)cc4)c3=O)nc12 [I-25] | < 50 | < 50 | 0.2 to 1 | 
CNc1cc(Nc2cccnc2OC2CC2)nc2c(-c3cn(C(C)C)nn3)cnn12 [I-985, N5-(2-cyclopropoxypyridin-3-yl)-3-(1-isopropyl-1H-1,2,3-triazol-4-yl)-N7-methylpyrazolo[1,5-a]pyrimidine-5,7-diamine] |  |  | 0.2 to 1 | inhibition at 10 µM (JAK2 kinase domain (JH1); 10 μM compound, 10 μM ATP): < 50%; inhibition at 10 µM (Tyk2 kinase domain (DH1); 10 μM compound, 10 μM ATP): < 50%
Nc1cc(Nc2cccnc2OC(F)(F)F)nc2c(C(=O)NC3COC3)cnn12 [I-103, 7-amino-N-(oxetan-3-yl)-5-((2-(trifluoromethoxy)pyridin-3-yl)amino)pyrazolo[1,5-a]pyrimidine-3-carboxamide] | < 50 | < 50 | > 10 | 
CNc1cc(Nc2cccnc2OC2COC2)nc2c(C(=O)NC3CCC3)cnn12 [I-298] | < 50 | < 50 | 1 to 10 | 
CNc1cc(-c2nn(C(C)C)c3ncccc23)nc2c(C(=O)N[C@H]3C[C@H]3F)cnn12 [I-451] | < 50 | < 50 | < 0.2 | 
CNc1cc(Nc2cccn(-c3cccc(F)c3)c2=O)nc2c(C(=O)N[C@@H]3CC[C@H]3O)cnn12 [I-1023] |  |  | < 0.2 | inhibition at 10 µM (JAK2 kinase domain (JH1); 10 μM compound, 10 μM ATP): < 50%; inhibition at 10 µM (Tyk2 kinase domain (DH1); 10 μM compound, 10 μM ATP): < 50%
Cc1cc(Nc2cc(N)n3ncc(C(N)=O)c3n2)cc(N2CCCC2)n1 [I-28] | < 50 | < 50 | > 10 | 
CNc1cc(Nc2cccnc2OC)nc2c(C(=O)NC3CC(F)(F)C3)cnn12 [I-338, N-(3,3-difluorocyclobutyl)-5-((2-methoxypyridin-3-yl)amino)-7-(methylamino)pyrazolo[1,5-a]pyrimidine-3-carboxamide] | < 50 | < 50 | < 0.2 | 
CNc1cc(Nc2cc(C)nc(N3CC[C@@H](O)C3)c2)nc2c(C(N)=O)cnn12 [I-60] | < 50 | < 50 | 1 to 10 | 
[2H]C([2H])([2H])Oc1ncccc1Nc1cc(NC)n2ncc(C(=O)NC(C)(C)C#N)c2n1 [I-493, N-(2-cyanopropan-2-yl)-5-((2-(methoxy-d3)pyridin-3-yl)amino)-7-(methylamino)pyrazolo[1,5-a]pyrimidine-3-carboxamide] | < 50 | < 50 | 0.2 to 1 | 
CNc1cc(Nc2cccnc2O[C@H]2C[C@@H](OC)C2)nc2c(C(=O)NC3CCC3)cnn12 [I-183] | < 50 | < 50 | < 0.2 | 
CNc1cc(Nc2cccn([C@H]3CCOC3)c2=O)nc2c(C(N)=O)cnn12 [I-196] | < 50 | < 50 | 0.2 to 1 | 
CNc1cc(Nc2cccn(-c3ccccc3F)c2=O)nc2c(C(=O)NC[C@H](C)CO)cnn12 [I-1077] |  |  | 0.2 to 1 | inhibition at 10 µM (JAK2 kinase domain (JH1); 10 μM compound, 10 μM ATP): < 50%; inhibition at 10 µM (Tyk2 kinase domain (DH1); 10 μM compound, 10 μM ATP): < 50%
CNc1cc(Nc2cccnc2OC)nc2c(C(=O)N[C@@H]3COC[C@@H]3O)cnn12 [I-614] | < 50 | < 50 | 1 to 10 | 
CNc1cc(Nc2cc(F)cn(-c3nn(C)cc3C)c2=O)nc2c(C(=O)N[C@@H]3C[C@@H]3F)cnn12 [I-416] | < 50 | < 50 | > 10 | 

Second part, led by results:

inhibition at 10 µM (JAK2 kinase domain (JH1); compound at 10 μM, ATP 10 μM) [%] | inhibition at 10 µM (Tyk2 kinase domain (DH1); compound at 10 μM, ATP 10 μM) [%] | Kd [1] [nM] | Structure (SMILES) | other results
< 50 | < 50 | 0.2 to 1 | CNc1cc(Nc2cccn(CCOC3CC3)c2=O)nc2c(C(=O)NC3CC[C@H]3O)cnn12 (stereo in doubt) [I-515, 5-((1-(2-cyclopropoxyethyl)-2-oxo-1,2-dihydropyridin-3-yl)amino)-N-((1R,2R)-2-hydroxycyclobutyl)-7-(methylamino)pyrazolo[1,5-a]pyrimidine-3-carboxamide] | 
 |  | < 0.2 | CNc1cc(Nc2cccn([C@@H]3CCC[C@@H](OC)C3)c2=O)nc2c(C(=O)NC3CC3)cnn12 [I-1026] | inhibition at 10 µM (JAK2 kinase domain (JH1); 10 μM compound, 10 μM ATP): < 50%; inhibition at 10 µM (Tyk2 kinase domain (DH1); 10 μM compound, 10 μM ATP): < 50%
< 50 | < 50 | < 0.2 | CNc1cc(Nc2cccn([C@@H]3CCCOC3)c2=O)nc2c(C(=O)N[C@H]3CCC[C@H](O)C3)cnn12 [I-703] | 
< 50 | < 50 | 0.2 to 1 | CNc1cc(Nc2cccn([C@@H]3CCOC3)c2=O)nc2c(C(=O)NC3CCC3)cnn12 [I-204] | 
< 50 | < 50 | < 0.2 | CNc1cc(Nc2cccn([C@H]3CC[C@H](OC)CC3)c2=O)nc2c(C(=O)NCC(C)CO)cnn12 (stereo partly drawn) [I-613] | 
< 50 | < 50 | < 0.2 | CNc1cc(Nc2cccn(-c3ccc(C(=O)N4CCC4)cn3)c2=O)nc2c(C(=O)N[C@H]3C[C@H]3F)cnn12 [I-142] | 
 |  | 0.2 to 1 | CNc1cc(Nc2cccn([C@H]3CCC[C@@H]3OC)c2=O)nc2c(C(=O)N[C@@H]3C[C@@H]3F)cnn12 [I-485] | JAK2 JH1% Inhibition @ 10 μM (JAK2 kinase domain (JH1); compound at 10 μM, ATP 10 μM): A (percent inhibition at 10 μM lower than 50); Tyk2 JH1% Inhibition @ 10 μM (Tyk2 kinase domain (DH1); compound at 10 μM, ATP 10 μM): A (percent inhibition at 10 μM lower than 50)
 |  | 0.2 to 1 | CNc1cc(Nc2cccn([C@H]3CCCC[C@H]3OC)c2=O)nc2c(C(=O)NC3CC3)cnn12 [I-1044] | inhibition at 10 µM (JAK2 kinase domain (JH1); 10 μM compound, 10 μM ATP): < 50%; inhibition at 10 µM (Tyk2 kinase domain (DH1); 10 μM compound, 10 μM ATP): < 50%
< 50 | < 50 | < 0.2 | CNc1cc(Nc2cccn([C@H]3CCOC3)c2=O)nc2c(C(=O)NC3CCC3)cnn12 [I-205] | 
 |  | < 0.2 | CNc1cc(Nc2cccn([C@@H]3C[C@H]3F)c2=O)nc2c(C(=O)N[C@@H]3CC[C@H]3O)cnn12 [I-1091] | inhibition at 10 µM (JAK2 kinase domain (JH1); 10 μM compound, 10 μM ATP): < 50%; inhibition at 10 µM (Tyk2 kinase domain (DH1); 10 μM compound, 10 μM ATP): < 50%
 |  | < 0.2 | CNc1cc(Nc2cccn([C@H]3CC[C@@H]3O)c2=O)nc2c(C(=O)N[C@@H]3C[C@@H]3F)cnn12 [I-998] | JAK2 JH1% Inhibition @ 10 μM (JAK2 kinase domain (JH1); 10 μM compound, 10 μM ATP): A (percent inhibition at 10 μM lower than 50); Tyk2 JH1% Inhibition @ 10 μM (Tyk2 kinase domain (DH1); 10 μM compound, 10 μM ATP): A (percent inhibition at 10 μM lower than 50)
